Experimental data taken from patent US8772312B2, “Heterocyclic compounds as CRTH2 receptor antagonists” (CSPC Zhongqi Pharmaceutical Technology (Shijiazhuang) Co., …, priority 2007, dated 2014).

Key:
[1] = target: T1, CRTH2 (Homo sapiens, UniProt Q9Y5Y4); experiment: MDS Prostanoid CRTH2 Binding Assay (Catalog #268030), radioligand binding; settings: 20 nM of tested compound; ligand 1 nM [3H]PGD2; human recombinant CHO-K1 cells; 2 hours @ 25° C.
T1 construct: host or cells: CHO-K1
T1 sequence (Q9Y5Y4 1-395): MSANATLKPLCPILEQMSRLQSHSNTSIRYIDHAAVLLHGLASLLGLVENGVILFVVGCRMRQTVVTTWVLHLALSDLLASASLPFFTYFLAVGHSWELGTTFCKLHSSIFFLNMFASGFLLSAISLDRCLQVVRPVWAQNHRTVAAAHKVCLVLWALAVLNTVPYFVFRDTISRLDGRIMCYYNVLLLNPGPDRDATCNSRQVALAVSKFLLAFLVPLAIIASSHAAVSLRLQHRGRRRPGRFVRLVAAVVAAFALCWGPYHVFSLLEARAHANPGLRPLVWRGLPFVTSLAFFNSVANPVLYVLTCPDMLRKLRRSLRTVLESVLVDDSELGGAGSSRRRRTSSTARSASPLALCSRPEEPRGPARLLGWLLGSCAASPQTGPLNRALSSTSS
Procedure: The CRTH2 binding affinity of compounds of Formula I were assayed by MDS Pharma Service using the following reagents and conditions:
• MDS Prostanoid CRTH2 Binding Assay (Catalog #268030): • Source: Human recombinant CHO-K1 cells • Ligand: 1 nM [^3H]

[2] = target: T1, CRTH2; settings: radioligand [3H] Prostaglandin D2; historical value of the MDS assay; cited from earlier work

Compound | % inhibition of PGD2 binding [1] | Kd [2]
CN(C1CCc2c(CC(=O)O)c3cccnc3n2C1)S(=O)(=O)c1ccc(F)cc1 (single isomer, unassigned) [Example 4B] | 0% | –
CCCCC[C@H](O)/C=C/[C@H]1C(=O)C[C@H](O)[C@@H]1C/C=C\CCCC(=O)O [PGD2, Prostaglandin D2] | – | 4.1 nM

Second part, led by results:

% inhibition of PGD2 binding [1] | Compound | Kd [2]
97% | CN(C1CCc2c(CC(=O)O)c3ccc(Cl)nc3n2C1)S(=O)(=O)c1ccc(F)cc1 (single isomer, unassigned) [Example 2A] | –
0% | CN(C1CCc2c(CC(=O)O)c3ccc(Cl)nc3n2C1)S(=O)(=O)c1ccc(F)cc1 (single isomer, unassigned) [Example 2B] | –
91% | CN(C1CCc2c(CC(=O)O)c3cccnc3n2C1)S(=O)(=O)c1ccc(F)cc1 (single isomer, unassigned) [Example 4A] | –
